# Data reported in patent US20030078251A1, “Benzoxazepinones and their use as squalene synthase inhibitors” (priority 2000, published 2003).
row,Structure (SMILES),melting point
1,"COc1ccc(C(C)(C)CCC(=O)O)cc1NC(=O)C[C@H]1O[C@H](c2cccc(OC)c2OC)c2cc(Cl)ccc2N(CC(C)(C)CO)C1=O [Example 138, 4-[3-[[2-[(3R,5S)-7-Chloro-5-(2,3-dimethoxyphenyl)-1-(3-hydroxy-2,2-dimethylpropyl)-2-oxo-1,2,3,5-tetrahydro-4,1-benzoxazepin-3-yl]acetyl]amino]-4-methoxyphenyl]-4,4-dimethylbutanoic acid]",173 to 174 °C
2,"COc1cccc([C@@H]2O[C@@H](CC(=O)Nc3cc(CCC(=O)O)ccc3F)C(=O)N(CC(C)(C)CO)c3ccc(Cl)cc32)c1OC [Example 121, 3-[3-[[[(3S,5R)-7-Chloro-5-(2,3-dimethoxyphenyl)-1-(3-hydroxy-2,2-dimethylpropyl)-2-oxo-1,2,3,5-tetrahydro-4,1-benzoxazepin-3-yl]acetyl]amino]-4-fluorophenyl]propionic Acid]",151 to 153 °C
3,"COc1cccc([C@H]2O[C@H](CC(=O)Nc3cc(OC)c4oc(C(=O)O)cc4c3)C(=O)N(CC(C)(C)CO)c3ccc(Cl)cc32)c1OC [Example 149, 5-[[[(3R,5S)-5-(2,3-dimethoxyphenyl)-7-chloro-1-(3-hydroxy-2,2-dimethylpropyl)-2-oxo-1,2,3,5-tetrahydro-4,1-benzoxazepin-3-yl]acetyl]amino]-7-methoxy-1-benzofran-2-carboxylic acid]",175.4 to 175.5 °C
4,"COc1ccc(CCCC(=O)O)cc1NC(=O)C[C@H]1O[C@H](c2cccc(OC)c2OC)c2cc(Cl)ccc2N(CC(C)(C)CO)C1=O [Example 110, 4-[3-[[[(3R,5S)-7-Chloro-5-(2,3-dimethoxyphenyl)-1-(3-hydroxy-2,2-dimethylpropyl)-2-oxo-1,2,3,5-tetrahydro-4,1-benzoxazepin-3-yl]acetyl]amino]-4-methoxyphenyl]butanoic acid]",119 to 121 °C
5,"COc1cccc([C@H]2O[C@H](CC(=O)NS(=O)(=O)CCCO)C(=O)N(CC(C)(C)CO)c3ccc(Cl)cc32)c1OC [Example 6, (3R,5S)-N-(3-hydroxypropyl)sulfonyl-7-chloro-5-(2,3-dimethoxyphenyl)-1-(3-hydroxy-2,2-dimethylpropyl)-2-oxo-1,2,3,5-tetrahydro-4,1-benzoxazepine-3-acetamide]",133 to 135 °C
6,"COc1ccc(C(C)(C)C(=O)O)cc1NC(=O)C[C@H]1O[C@H](c2cccc(OC)c2OC)c2cc(Cl)ccc2N(CC(C)(C)CO)C1=O [Example 137, 2-[3-[[2-[(3R,5S)-7-Chloro-5-(2,3-dimethoxyphenyl)-1-(3-hydroxy-2,2-dimethylpropyl)-2-oxo-1,2,3,5-tetrahydro-4,1-benzoxazepin-3-yl]acetyl]amino]-4-methoxyphenyl]-2,2-dimethylacetic acid]",225 to 226 °C (dec.)
7,"CCOc1ccc(CCC(=O)O)cc1NC(=O)C[C@H]1O[C@H](c2cccc(OC)c2OC)c2cc(Cl)ccc2N(CC(C)(C)CO)C1=O [Example 49, 3-[3-[[[(3R,5S)-7-chloro-5-(2,3-dimethoxyphenyl)-1-(3-hydroxy-2,2-dimethylpropyl)-2-oxo-1,2,3,5-tetrahydro-4,1-benzoxazepin-3-yl]acetyl]amino]-4-ethoxyphenyl]propionic Acid]",151 to 153 °C
8,"COc1cccc([C@H]2O[C@H](CC(=O)Nc3cccc(OC(F)(F)C(=O)O)c3)C(=O)N(CC(C)(C)CO)c3ccc(Cl)cc32)c1OC [Example 133, 2-[3-[[[(3R,5S)-7-Chloro-5-(2,3-dimethoxyphenyl)-1-(3-hydroxy-2,2-dimethylpropyl)-2-oxo-1,2,3,5-tetrahydro-4,1-benzoxazepin-3-yl]acetyl]amino]phenyloxy]-2,2-difluoroacetic acid]",119 to 121 °C
9,"CCOc1cc(NC(=O)C[C@H]2O[C@H](c3cccc(OC)c3OC)c3cc(Cl)ccc3N(CC(C)(C)CO)C2=O)cc2cc(C(=O)O)oc12 [Example 150, 5-[[[(3R,5S)-7-chloro-5-(2,3-dimethoxyphenyl)-1-(3-hydroxy-2,2-dimethylpropyl)-2-oxo-1,2,3,5-tetrahydro-4,1-benzoxazepin-3-yl]acetyl]amino]-7-ethoxy-1-benzofuran-2-carboxylic acid]",181 to 181.5 °C
10,"COc1cccc([C@H]2O[C@H](CC(=O)NCCCOc3cccc(C(=O)O)c3)C(=O)N(CC(C)(C)CO)c3ccc(Cl)cc32)c1OC [Example 100, 3-[3-[[(3R,5S)-7-Chloro-5-(2,3-dimethoxyphenyl)-1-(3-hydroxy-2,2-dimethylpropyl)-2-oxo-1,2,3,5-tetrahydro-4,1-benzoxazepin-3-yl]acetyl]aminopropyloxy]benzoic acid]",132 to 134 °C
11,"COc1cccc([C@H]2O[C@H](CC(=O)Nc3cc(CCC(=O)O)ccc3OC(C)C)C(=O)N(CC(C)(C)CO)c3ccc(Cl)cc32)c1OC [Example 51, 3-[3-[[[(3R,5S)-7-chloro-5-(2,3-dimethoxyphenyl)-1-(3-hydroxy-2,2-dimethylpropyl)-2-oxo-1,2,3,5-tetrahydro-4,1-benzoxazepin-3-yl]acetyl]amino]-4-isopropoxyphenyl]propionic Acid]",133 to 136 °C
12,"COc1cccc([C@H]2O[C@H](CC(=O)Nc3cc(CCC(=O)O)ccc3OCCCc3ccccc3)C(=O)N(CC(C)(C)CO)c3ccc(Cl)cc32)c1OC [Example 125, 3-[3-[[[(3R,5S)-7-Chloro-5-(2,3-dimethoxyphenyl)-1-(3-hydroxy-2,2-dimethylpropyl)-2-oxo-1,2,3,5-tetrahydro-4,1-benzoxazepin-3-yl]acetyl]amino]-4-(3-phenylpropyloxy)phenyl]propionic Acid]",162 to 165 °C
13,"COc1cccc([C@H]2O[C@H](CC(=O)Nc3ccc4oc(C(=O)O)c(OC)c4c3)C(=O)N(CC(C)(C)CO)c3ccc(Cl)cc32)c1OC [Example 153, 5-[[[(3R,5S)-7-chloro-5-(2,3-dimethoxyphenyl)-7-chloro-1-(3-hydroxy-2,2-dimethylpropyl)-2-oxo-1,2,3,5-tetrahydro-4,1-benzoxazepin-3-yl]acetyl]amino]-3-methoxy-1-benzofuran-2-carboxylic acid]",175.4 to 176.3 °C
14,"CCCCS(=O)(=O)NC(=O)C[C@H]1O[C@H](c2cccc(OC)c2OC)c2cc(Cl)ccc2N(CC(C)(C)CO)C1=O [Example 4, (3R,5S)-N-butanesulfonyl-7-chloro-5-(2,3-dimethoxyphenyl)-1-(3-hydroxy-2,2-dimethylpropyl)-2-oxo-1,2,3,5-tetrahydro-4,1-benzoxazepine-3-acetamide]",123 to 125 °C
15,"COc1cccc([C@H]2O[C@H](CC(=O)Nc3cc(Cl)cc4cc(C(=O)O)oc34)C(=O)N(CC(C)(C)CO)c3ccc(Cl)cc32)c1OC [Example 165, 7-[[[(3R,5S)-7-Chloro-5-(2,3-dimethoxyphenyl)-1-(3-hydroxy-2,2-dimethylpropyl)-2-oxo-1,2,3,5-tetrahydro-5,1-benzoxazepin-3-yl]acetyl]amino]-5-chloro-1-benzofuran-2-carboxylic acid]",179.2 to 180.2 °C
16,"COc1cccc([C@H]2O[C@H](CC(=O)Nc3nc(C)c(C(=O)O)s3)C(=O)N(CC(C)(C)CO)c3ccc(Cl)cc32)c1OC [Example 145, 2-[[[(3R,5S)-7-Chloro-5-(2,3-dimethoxyphenyl)-1-(3-hydroxy-2,2-dimethylpropyl)-2-oxo-1,2,3,5-tetrahydro-4,1-benzoxazepin-3-yl]acetyl]amino]-4-methyl-1,3-thiazole-5-carboxylic acid]",251 to 252 °C
17,"COc1cccc([C@H]2O[C@H](CC(=O)Nc3cccc(C(=O)O)c3C)C(=O)N(CC(C)(C)COC(C)=O)c3ccc(Cl)cc32)c1OC [Example 44, 3-[[[(3R,5S)-1-(3-acetoxy-2,2-dimethylpropyl)-7-chloro-5-(2,3-dimethoxyphenyl)-2-oxo-1,2,3,5-tetrahydro-4,1-benzoxazepin-3-yl]acetyl]amino]-2-metylbenzoic acid]",139 to 142 °C
18,"COc1cccc([C@H]2O[C@H](CC(=O)Nc3ccc4oc(C(=O)O)cc4c3)C(=O)N(CC(C)(C)CO)c3ccc(Cl)cc32)c1OC [Example 81, 5-[[[(3R,5S)-7-Chloro-5-(2,3-dimethoxyphenyl)-1-(3-hydroxy-2,2-dimethylpropyl)-2-oxo-1,2,3,5-tetrahydro-4,1-benzoxazepin-3-yl]acetyl]amino]benzofuran-2-carboxylic acid]",171 to 172 °C
19,"COc1cccc([C@H]2O[C@H](CC(=O)N[C@H](CCSC)C(=O)O)C(=O)N(CC(C)(C)CO)c3ccc(Cl)cc32)c1OC [Example 16, N-[[(3R,5S)-7-chloro-5-(2,3-dimethoxyphenyl)-1-(3-hydroxy-2,2-dimethylpropyl)-2-oxo-1,2,3,5-tetrahydro-4,1-benzoxazepin-3-yl]acetyl]-D-methionine]",142 to 143 °C
20,"COc1cccc([C@@H]2O[C@@H](CC(=O)Nc3cccc(CCC(=O)O)c3)C(=O)N(CC(C)(C)CO)c3ccc(Cl)cc32)c1OC [Example 120, 3-[3-[[(3S,5R)-7-Chloro-5-(2,3-dimethoxyphenyl)-1-(3-hydroxy-2,2-dimethylpropyl)-2-oxo-1,2,3,5-tetrahydro-4,1-benzoxazepin-3-yl]acetyl]aminophenyl]propionic Acid]",137 to 139 °C
